Twelve compounds from ChEMBL document CHEMBL2401616, “A novel amalgamation of 1,2,3-triazoles, piperidines and thieno pyridine rings and evaluation of their antifungal activity” (2013) can be followed below.

Experiment [1] relates to Cryptococcus neoformans. Kind of experiment: Antifungal activity against Cryptococcus neoformans NCIM 576 assessed as growth inhibition by agar dilution method. The class given is functional.
In experiment [2] the test system is Fusarium oxysporum. Nature of the experiment: Antifungal activity against Fusarium oxysporum NCIM 1332 assessed as growth inhibition by agar dilution method. It counts as functional. A general note: Agar dilution tests growth on a series of plates holding different concentrations.
The subject of experiment [3] is Aspergillus niger. Kind of experiment: Antifungal activity against Aspergillus niger NCIM 1196 assessed as growth inhibition by agar dilution method. The class given is functional.
The test system of experiment [4] is Aspergillus flavus. Nature of the experiment: Antifungal activity against Aspergillus flavus NCIM 539 assessed as growth inhibition by agar dilution method. The class given is functional.
Experiment [5] deals with Candida albicans. Nature of the experiment: Antifungal activity against Candida albicans NCIM 3471 assessed as growth inhibition by agar dilution method. The class given is functional.
Experiment [6] concerns Cryptococcus neoformans. Nature of the experiment: Antifungal activity against Cryptococcus neoformans NCIM 576 assessed as growth inhibition up to 200 ug/mL by agar dilution method. It counts as functional, organism-based.
The subject of experiment [7] is Aspergillus niger. Kind of experiment: Antifungal activity against Aspergillus niger NCIM 1196 assessed as growth inhibition up to 200 ug/mL by agar dilution method. It counts as functional, organism-based.
For experiment [8], the system named is Aspergillus flavus. Nature of the experiment: Antifungal activity against Aspergillus flavus NCIM 539 assessed as growth inhibition up to 200 ug/mL by agar dilution method. The class given is functional, organism-based.
For experiment [9], the system named is Fusarium oxysporum. Nature of the experiment: Antifungal activity against Fusarium oxysporum NCIM 1332 assessed as growth inhibition up to 200 ug/mL by agar dilution method. It counts as functional, organism-based.

The term MIC denotes the smallest concentration in the dilution series that meets the test's criterion for growth inhibition.

Converted amounts (≈) assume the structure as drawn. The source made the active and inactive calls.

Turning to `CC(C)C(=O)N1CCC(n2cc(CN3CCc4sccc4C3)nn2)CC1`, the MIC in [1] came out at 150 µg/mL (≈ 402 µM); in [2] it was 100 µg/mL (≈ 268 µM); in experiment [3], 47.5 µg/mL (≈ 127 µM); in experiment [4] it was 35 µg/mL (≈ 93.7 µM); in experiment [5] it was 100 µg/mL (≈ 268 µM).
As for `c1ccc(CN2CCC(n3cc(CN4CCc5sccc5C4)nn3)CC2)cc1`, the minimal inhibitory concentration (MIC) in experiment [1] is 90 µg/mL (≈ 229 µM); in experiment [2], 75 µg/mL (≈ 191 µM); in experiment [3], 100 µg/mL (≈ 254 µM); in experiment [4], 60 µg/mL (≈ 152 µM); in experiment [5], 50 µg/mL (≈ 127 µM).
As for `CN1CCC(n2cc(CN3CCc4sccc4C3)nn2)CC1`, the “growth inhibition (GI)” value in [6] and in experiment [7] was “inactive” throughout. The minimum inhibitory concentration (MIC) in [2] is 70 µg/mL (≈ 220 µM); in experiment [4] it was 40 µg/mL (≈ 126 µM); in [5] it was 40 µg/mL (≈ 126 µM).
As to `c1cc2c(s1)CCN(Cc1cn(C3CCNCC3)nn1)C2`, the minimum inhibitory concentration (MIC) is 100 µg/mL (≈ 330 µM) in [1]; 90 µg/mL (≈ 297 µM) in experiment [2]; 100 µg/mL (≈ 330 µM) in experiment [3]; 60 µg/mL (≈ 198 µM) in [4]; 50 µg/mL (≈ 165 µM) in experiment [5].
Turning to `CCN1CCC(n2cc(CN3CCc4sccc4C3)nn2)CC1`, the minimal inhibitory concentration (MIC) in experiment [1] was 150 µg/mL (≈ 453 µM); in experiment [2], 100 µg/mL (≈ 302 µM); in experiment [3], 47.5 µg/mL (≈ 143 µM); in experiment [4], 35 µg/mL (≈ 106 µM); in [5], 90 µg/mL (≈ 272 µM).
Turning to `CS(=O)(=O)N1CCC(n2cc(CN3CCc4sccc4C3)nn2)CC1`, the minimum inhibitory concentration (MIC) in experiment [1] came to 25 µg/mL (≈ 65.5 µM); in experiment [2], 30 µg/mL (≈ 78.6 µM); in experiment [3], 40 µg/mL (≈ 105 µM); in experiment [4], 40 µg/mL (≈ 105 µM); in experiment [5], 50 µg/mL (≈ 131 µM).
As to `CC(=O)N1CCC(n2cc(CN3CCc4sccc4C3)nn2)CC1`, the “growth inhibition (GI)” value in experiment [6] and in experiment [8] was “inactive” each time. In addition, the MIC in [2] stood at 45 µg/mL (≈ 130 µM); in experiment [3], 100 µg/mL (≈ 289 µM); in [5], 40 µg/mL (≈ 116 µM).
`Clc1ccc(COC(Cn2ccnc2)c2ccc(Cl)cc2Cl)c(Cl)c1` (stereo not given) [MICONAZOLE]: the MIC in [1] was determined as 25 µg/mL (≈ 60.1 µM); in [2], 25 µg/mL (≈ 60.1 µM); in experiment [3] it was 12.5 µg/mL (≈ 30 µM); in experiment [4], 12.5 µg/mL (≈ 30 µM); in experiment [5], 25 µg/mL (≈ 60.1 µM).
For the compound `O=C(c1ccccc1)N1CCC(n2cc(CN3CCc4sccc4C3)nn2)CC1`, the MIC in [1] came to 100 µg/mL (≈ 245 µM); in experiment [4] it was 65 µg/mL (≈ 159 µM); in experiment [5] it was 90 µg/mL (≈ 221 µM). The “growth inhibition (GI)” value in [7] and in experiment [9] was “inactive” each time.
Take `Cc1ccc(S(=O)(=O)N2CCC(n3cc(CN4CCc5sccc5C4)nn3)CC2)cc1`: the minimal inhibitory concentration (MIC) was determined as 40 µg/mL (≈ 87.4 µM) in [1]; 70 µg/mL (≈ 153 µM) in experiment [2]; 37.5 µg/mL (≈ 81.9 µM) in experiment [3]; 45 µg/mL (≈ 98.3 µM) in experiment [4]; 60 µg/mL (≈ 131 µM) in [5].
Consider `CCC(=O)N1CCC(n2cc(CN3CCc4sccc4C3)nn2)CC1`, for which the “growth inhibition (GI)” value in experiment [6] and in [7] was “inactive” in each case. The minimal inhibitory concentration (MIC) came out at 60 µg/mL (≈ 167 µM) in experiment [2], 30 µg/mL (≈ 83.4 µM) in [4] and 50 µg/mL (≈ 139 µM) in [5].
As for `O=C(c1ccc(Cl)cc1)N1CCC(n2cc(CN3CCc4sccc4C3)nn2)CC1`, the MIC in [1] came out at 45 µg/mL (≈ 102 µM); in experiment [2] it was 40 µg/mL (≈ 90.5 µM); in [3], 42.5 µg/mL (≈ 96.2 µM); in [4], 40 µg/mL (≈ 90.5 µM); in experiment [5], 45 µg/mL (≈ 102 µM).
